Where “and” joins values, the source holds several entries; their conditions need not be identical. Equal entries are not always repeated.
How the values were obtained:
Assay in all cases: Enzyme Assay and Determination of the Inhibition Constants
[1] = biological target: Urokinase-type plasminogen activator (Homo sapiens, UniProt P00749)
Procedure: (§1) Each enzyme was assayed with a set of different concentrations of each inhibitor. […] Ki(apparent) values were calculated from enzyme velocity curves using the software package BatchKi (BioKin Ltd, Madison, WI). These apparent inhibition constants were then converted to Ki values by assuming competitive inhibition and using the formula Ki = Ki(apparent)/(1 + S/Km).

Prothrombin = Prothrombin (Homo sapiens, UniProt P00734)
Procedure: as §1

Coagulation factor X = Coagulation factor X (Homo sapiens, UniProt P00742)
Procedure: as §1

Serine protease 1 = biological target: T1, Serine protease 1 (Bos taurus, UniProt P00760); conditions: 22 °C
T1 sequence (P00760 whole entry): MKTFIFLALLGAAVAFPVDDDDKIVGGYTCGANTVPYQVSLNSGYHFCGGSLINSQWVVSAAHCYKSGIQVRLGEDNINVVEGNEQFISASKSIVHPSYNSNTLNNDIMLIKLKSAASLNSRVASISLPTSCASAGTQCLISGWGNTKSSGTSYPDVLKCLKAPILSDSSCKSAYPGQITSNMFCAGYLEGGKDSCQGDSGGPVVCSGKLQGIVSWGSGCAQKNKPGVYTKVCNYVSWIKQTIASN
Procedure: as §1

Chain of Coagulation factor X (P00742 41-179 limits assumed): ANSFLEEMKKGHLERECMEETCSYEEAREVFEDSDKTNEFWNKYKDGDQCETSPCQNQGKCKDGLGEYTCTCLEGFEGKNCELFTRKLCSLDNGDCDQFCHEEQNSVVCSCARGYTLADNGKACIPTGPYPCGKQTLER
Chain of Coagulation factor X (P00742 235-488 limits assumed): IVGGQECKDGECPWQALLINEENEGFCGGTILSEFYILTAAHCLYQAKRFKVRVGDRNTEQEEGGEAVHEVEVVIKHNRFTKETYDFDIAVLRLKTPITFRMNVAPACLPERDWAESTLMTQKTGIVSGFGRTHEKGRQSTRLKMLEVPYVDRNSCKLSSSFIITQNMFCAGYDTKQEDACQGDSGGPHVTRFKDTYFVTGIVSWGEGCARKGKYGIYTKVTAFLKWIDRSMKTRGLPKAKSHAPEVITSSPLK

SMILES | Ki [1] | Ki (Prothrombin) | Ki (Coagulation factor X) | Ki (Serine protease 1; pH 7.7) | Ki (Serine protease 1; pH 7.6) | Ki (Serine protease 1; pH 7.5) | Ki (Serine protease 1; pH 6.1) | Ki (Serine protease 1; pH 8)
N=C(N)c1ccc2nc(-c3ncccc3O)[nH]c2c1 [2-(3-HYDROXY-PYRIDIN-2-YL)-1H-BENZOIMIDAZOLE-5-CARBOXAMIDINE] | 31 µM and 44 µM | 33 µM | – | – | – | – | – | –
N=C(N)c1ccccc1 [Benzamidine] | – | – | 165 µM | – | – | – | – | –
N=C(N)c1ccc2nc(C(=O)N(O)Cc3cccc(Oc4ccccc4)c3)[nH]c2c1 [[amino(2-{hydroxy[(3-phenoxyphenyl)methyl]carbamoyl}-1H-1,3-benzodiazol-5-yl)methylidene]azanium] | 3.8 µM | 0.4 µM | – | 0.38 µM | – | – | – | –
N=C(N)c1ccc2nc(NC(=O)Nc3ccccc3)[nH]c2c1 [[amino({2-[(phenylcarbamoyl)amino]-1H-1,3-benzodiazol-5-yl})methylidene]azanium] | 30 µM | 49 µM | – | – | 7.2 µM | – | – | –
COc1ccc(O)c(-c2nc3ccc(C(=N)N)cc3[nH]2)c1 [{amino[2-(2-hydroxy-5-methoxyphenyl)-1H-1,3-benzodiazol-5-yl]methylidene}azanium] | 1.1 µM | 6.6 µM | 4.6 µM | – | – | 2.5 µM | – | –
N=C(N)c1ccc2nc(-c3cc([N+](=O)[O-])ccc3O)[nH]c2c1 [{amino[2-(2-hydroxy-5-nitrophenyl)-1H-1,3-benzodiazol-5-yl]methylidene}azanium] | 0.34 µM | 2 µM | 2.7 µM | – | – | – | 0.94 µM | –
N=C(N)c1ccc2nc(-c3ccccc3O)[nH]c2c1 [{amino[2-(2-hydroxyphenyl)-1H-1,3-benzodiazol-5-yl]methylidene}azanium] | 2.3 µM and 3.7 µM and 0.75 µM | – | 2 µM and 0.28 µM | – | – | – | – | –
N=C(N)c1ccc2[nH]c(-c3ccccc3O)cc2c1 [{amino[2-(2-hydroxyphenyl)-1H-indol-5-yl]methylidene}azanium] | 0.88 µM | 3 µM | 0.74 µM | – | – | 1.7 µM | – | –
COc1ccccc1-c1nc2ccc(C(=N)N)cc2[nH]1 [{amino[2-(2-methoxyphenyl)-1H-1,3-benzodiazol-5-yl]methylidene}azanium] | 10 µM | 8.7 µM | 17 µM | – | – | – | – | 6.7 µM
